Reference: PubChem BioAssay AID1963969 (Molecular Pharmacology Branch, DTP, NCI, 2024)
Several values for one entry are separate records, joined by “and”; a condition that tells them apart may be missing. Equal values may be shown once.

System: 817829-284-R-J1-PDC multi-cell spheroid viability
Experiment: Anticancer human tumor 817829-284-R-J1-PDC patient-derived colon adenocarcinoma cell line growth inhibition [PI3K]
Conditions: for viability, T/C: stronger effect = lower value
Summary of the method: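 Stroma-containing spheroids: tumor line, pooled-donor HUVEC, hMSC. Treatments: targeted agents with PI3K inhibitors. Dosing: clinically relevant, half-log spacing, 10 microM ceiling without known Cmax. Read-out: cell viability.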

[1] = curve of first compound, second compound 0.00316 µM
[2] = curve of first compound, second compound 0.01 µM
[3] = curve of first compound, second compound 0.0316 µM
[4] = curve of first compound, second compound 0.1 µM
[5] = curve of first compound, second compound 0.316 µM
[6] = curve of first compound, second compound 1 µM
[7] = second compound 0.00316 µM, first compound 0.0316 µM
[8] = second compound 0.00316 µM, first compound 0.1 µM
[9] = second compound 0.01 µM, first compound 0.0316 µM
[10] = second compound 0.01 µM, first compound 0.1 µM
[11] = second compound 0.0316 µM, first compound 0.0316 µM
[12] = second compound 0.0316 µM, first compound 0.1 µM
[13] = second compound 0.1 µM, first compound 0.0316 µM
[14] = second compound 0.1 µM, first compound 0.1 µM
[15] = second compound 0.316 µM, first compound 0.0316 µM
[16] = second compound 0.316 µM, first compound 0.1 µM
[17] = second compound 1 µM, first compound 0.0316 µM
[18] = second compound 1 µM, first compound 0.1 µM
[19] = second compound 0.00316 µM, first compound 0.316 µM
[20] = second compound 0.00316 µM, first compound 1 µM
[21] = second compound 0.00316 µM, first compound 3.16 µM
[22] = second compound 0.00316 µM, first compound 10 µM
[23] = second compound 0.01 µM, first compound 0.316 µM
[24] = second compound 0.01 µM, first compound 1 µM
[25] = second compound 0.01 µM, first compound 3.16 µM
[26] = second compound 0.01 µM, first compound 10 µM
[27] = second compound 0.0316 µM, first compound 0.316 µM
[28] = second compound 0.0316 µM, first compound 1 µM
[29] = second compound 0.0316 µM, first compound 3.16 µM
[30] = second compound 0.0316 µM, first compound 10 µM
[31] = second compound 0.1 µM, first compound 0.316 µM
[32] = second compound 0.1 µM, first compound 1 µM
[33] = second compound 0.1 µM, first compound 3.16 µM
[34] = second compound 0.1 µM, first compound 10 µM
[35] = second compound 0.316 µM, first compound 0.316 µM
[36] = second compound 0.316 µM, first compound 1 µM
[37] = second compound 0.316 µM, first compound 3.16 µM
[38] = second compound 0.316 µM, first compound 10 µM
[39] = second compound 1 µM, first compound 0.316 µM
[40] = second compound 1 µM, first compound 1 µM
[41] = second compound 1 µM, first compound 3.16 µM
[42] = second compound 1 µM, first compound 10 µM
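Note: spheroids exposed to agents for seven days before readout.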
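Throughout, for viability, T/C: percent of vehicle DMSO control viability which is 100%.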

Cn1ncnc1[C@H]1c2n[nH]c(=O)c3cc(F)cc(c23)N[C@@H]1c1ccc(F)cc1 + CC(Nc1ccc2c(c1)OCCn1cc(N3C(=O)OCC3C(F)F)nc1-2)C(N)=O
IC50 [1]: > 0.1 µM | IC50 [2]: 0.075 µM | IC50 [3]: 0.01 µM | IC50 [4]: 0.0477 µM | IC50 [5]: 0.0121 µM | IC50 [6]: < 0.000316 µM | viability, T/C (second compound 0.00316 µM, first compound 0.000316 µM): 95.4% | viability, T/C (second compound 0.00316 µM, first compound 0.001 µM): 58.2% | viability, T/C (second compound 0.00316 µM, first compound 0.00316 µM): 104% | viability, T/C (second compound 0.00316 µM, first compound 0.01 µM): 35% | viability, T/C [7]: 71.1% | viability, T/C [8]: 53% | viability, T/C (second compound 0.01 µM, first compound 0.000316 µM): 75.1% | viability, T/C (second compound 0.01 µM, first compound 0.001 µM): 66% | viability, T/C (second compound 0.01 µM, first compound 0.00316 µM): 75% | viability, T/C (second compound 0.01 µM, first compound 0.01 µM): 68.3% | viability, T/C [9]: 70.2% | viability, T/C [10]: 43.3% | viability, T/C (second compound 0.0316 µM, first compound 0.000316 µM): 81.7% | viability, T/C (second compound 0.0316 µM, first compound 0.001 µM): 101% | viability, T/C (second compound 0.0316 µM, first compound 0.00316 µM): 46.9% | viability, T/C (second compound 0.0316 µM, first compound 0.01 µM): 65% | viability, T/C [11]: 53.5% | viability, T/C [12]: 43.6% | viability, T/C (second compound 0.1 µM, first compound 0.000316 µM): 65.6% | viability, T/C (second compound 0.1 µM, first compound 0.001 µM): 52.2% | viability, T/C (second compound 0.1 µM, first compound 0.00316 µM): 60.3% | viability, T/C (second compound 0.1 µM, first compound 0.01 µM): 70.9% | viability, T/C [13]: 43% | viability, T/C [14]: 46.6% | viability, T/C (second compound 0.316 µM, first compound 0.000316 µM): 40.1% | viability, T/C (second compound 0.316 µM, first compound 0.001 µM): 65.8% | viability, T/C (second compound 0.316 µM, first compound 0.00316 µM): 61.2% | viability, T/C (second compound 0.316 µM, first compound 0.01 µM): 39.4% | viability, T/C [15]: 49.8% | viability, T/C [16]: 33.3% | viability, T/C (second compound 1 µM, first compound 0.000316 µM): 31.9% | viability, T/C (second compound 1 µM, first compound 0.001 µM): 60.9% | viability, T/C (second compound 1 µM, first compound 0.00316 µM): 43.1% | viability, T/C (second compound 1 µM, first compound 0.01 µM): 42.3% | viability, T/C [17]: 36.7% | viability, T/C [18]: 20.8%

CC(Nc1ccc2c(c1)OCCn1cc(N3C(=O)OCC3C(F)F)nc1-2)C(N)=O (stereo not drawn)
viability, T/C (compound 0.00316 µM): 82.8% [middle of 6 runs] | IC50 (compound alone, run of 04/24/2023): > 1 µM and 0.28 µM and 1 µM

C#Cc1c(F)ccc2cc(O)cc(-c3ncc4c(N5CC6CCC(C5)N6)nc(OCC56CCCN5CC(F)C6)nc4c3F)c12 (stereo not drawn) + COc1c(OCCCN2CCOCC2)ccc2c3n(c(=NC(=O)c4cnc(N)nc4)nc12)CCN3
IC50 [1]: > 10 µM | IC50 [2]: > 10 µM | IC50 [3]: 7.45 µM | IC50 [4]: < 0.0316 µM | IC50 [5]: < 0.0316 µM | IC50 [6]: < 0.0316 µM | viability, T/C [7]: 64.9% | viability, T/C [8]: 82.5% | viability, T/C [19]: 83.7% | viability, T/C [20]: 71.8% | viability, T/C [21]: 77% | viability, T/C [22]: 70.2% | viability, T/C [9]: 86.2% | viability, T/C [10]: 84% | viability, T/C [23]: 62.9% | viability, T/C [24]: 61.8% | viability, T/C [25]: 69.6% | viability, T/C [26]: 51.1% | viability, T/C [11]: 73.8% | viability, T/C [12]: 41.5% | viability, T/C [27]: 53.7% | viability, T/C [28]: 50.4% | viability, T/C [29]: 74.8% | viability, T/C [30]: 37.2% | viability, T/C [13]: 28.6% | viability, T/C [14]: 40.5% | viability, T/C [31]: 37.6% | viability, T/C [32]: 21.4% | viability, T/C [33]: 37.8% | viability, T/C [34]: 30.8% | viability, T/C [15]: 17.4% | viability, T/C [16]: 26.3% | viability, T/C [35]: 22.2% | viability, T/C [36]: 14.9% | viability, T/C [37]: 18% | viability, T/C [38]: 12.4% | viability, T/C [17]: 8.66% | viability, T/C [18]: 9.22% | viability, T/C [39]: 8.61% | viability, T/C [40]: 8.24% | viability, T/C [41]: 5.56% | viability, T/C [42]: 6.03%

Cn1ncc(Cl)c1-c1cc(C(=O)NC(CN)Cc2cccc(F)c2)sc1Cl (stereo not drawn) + COc1c(OCCCN2CCOCC2)ccc2c3n(c(=NC(=O)c4cnc(N)nc4)nc12)CCN3
IC50 [1]: 0.073 µM | IC50 [2]: 0.0799 µM | IC50 [3]: 0.0452 µM | IC50 [4]: < 0.0316 µM | IC50 [5]: < 0.0316 µM | IC50 [6]: < 0.0316 µM | viability, T/C [7]: 105% | viability, T/C [8]: 29.4% | viability, T/C [19]: 21.1% | viability, T/C [20]: 20.9% | viability, T/C [21]: 18.1% | viability, T/C [22]: 15.5% | viability, T/C [9]: 69.6% | viability, T/C [10]: 46.2% | viability, T/C [23]: 25.6% | viability, T/C [24]: 25.9% | viability, T/C [25]: 18.3% | viability, T/C [26]: 10.8% | viability, T/C [11]: 59% | viability, T/C [12]: 31.2% | viability, T/C [27]: 16.8% | viability, T/C [28]: 20.9% | viability, T/C [29]: 15.8% | viability, T/C [30]: 10.5% | viability, T/C [13]: 25.4% | viability, T/C [14]: 25.4% | viability, T/C [31]: 21.2% | viability, T/C [32]: 15.2% | viability, T/C [33]: 13.9% | viability, T/C [34]: 10.3% | viability, T/C [15]: 20.2% | viability, T/C [16]: 23.4% | viability, T/C [35]: 15.2% | viability, T/C [36]: 12.2% | viability, T/C [37]: 11.1% | viability, T/C [38]: 8.71% | viability, T/C [17]: 9.57% | viability, T/C [18]: 11.1% | viability, T/C [39]: 8.51% | viability, T/C [40]: 9.47% | viability, T/C [41]: 7.2% | viability, T/C [42]: 8.41%
